Source: publication PMC8301926 (Biomolecules, 2021)

Experiments:
[1] = target: T1, human M5 muscarinic acetylcholine receptor (hM5R) (Homo sapiens, UniProt P08912); experiment: M5 (h) functional GPCR assay, agonist effect, intracellular Ca2+; type: cell-based; conditions: 100 µM; % of control response to 624-nM acetylcholine; RBL cells
T1 construct: host or cells: RBL (rat basophilic leukemic) cells
T1 sequence (P08912 1-532): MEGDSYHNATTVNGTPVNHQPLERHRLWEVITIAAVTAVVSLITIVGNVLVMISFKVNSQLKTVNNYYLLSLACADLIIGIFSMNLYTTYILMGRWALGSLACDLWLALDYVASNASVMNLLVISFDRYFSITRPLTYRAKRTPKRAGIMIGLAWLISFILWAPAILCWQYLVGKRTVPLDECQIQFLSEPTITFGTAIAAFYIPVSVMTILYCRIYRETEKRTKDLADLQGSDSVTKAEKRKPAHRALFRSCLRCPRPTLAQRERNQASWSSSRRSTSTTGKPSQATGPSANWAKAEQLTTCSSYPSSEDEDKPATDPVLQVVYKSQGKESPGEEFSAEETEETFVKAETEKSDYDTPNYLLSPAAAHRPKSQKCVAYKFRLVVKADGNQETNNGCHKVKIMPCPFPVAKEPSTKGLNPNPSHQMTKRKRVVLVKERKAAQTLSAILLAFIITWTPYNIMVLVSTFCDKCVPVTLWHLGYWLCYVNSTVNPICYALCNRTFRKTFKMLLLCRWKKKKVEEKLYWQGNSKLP

[2] = target: T2, recombinant human monoamine oxidase A (hMAO-A) (Homo sapiens, UniProt P21397); experiment: hMAO-A enzyme kinetics (Lineweaver-Burk, Dixon, secondary plots); type: biochemical; conditions: for Ki: hMAO-A, from secondary plots; for Inhibition Type, hMAO-A: Lineweaver-Burk and Dixon plots
T2 sequence (P21397 1-527): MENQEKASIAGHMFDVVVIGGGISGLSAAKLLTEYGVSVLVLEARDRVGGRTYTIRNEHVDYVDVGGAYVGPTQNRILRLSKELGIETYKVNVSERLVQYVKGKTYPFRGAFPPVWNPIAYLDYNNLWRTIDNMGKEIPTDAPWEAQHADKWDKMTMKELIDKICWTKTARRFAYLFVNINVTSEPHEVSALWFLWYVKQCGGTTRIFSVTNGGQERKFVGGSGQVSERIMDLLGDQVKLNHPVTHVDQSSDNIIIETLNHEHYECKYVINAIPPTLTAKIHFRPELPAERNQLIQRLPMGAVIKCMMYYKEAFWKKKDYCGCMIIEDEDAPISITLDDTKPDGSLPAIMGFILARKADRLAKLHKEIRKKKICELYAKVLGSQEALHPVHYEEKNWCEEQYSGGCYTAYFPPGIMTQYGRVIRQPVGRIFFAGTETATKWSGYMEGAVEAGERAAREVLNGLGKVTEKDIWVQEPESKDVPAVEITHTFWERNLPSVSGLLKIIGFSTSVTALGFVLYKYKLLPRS

[3] = target: T3, human M2 muscarinic acetylcholine receptor (hM2R) (Homo sapiens, UniProt P08172); experiment: M2 (h) functional GPCR assay, agonist effect, cAMP HTRF; type: cell-based; conditions: 100 µM; % of control response to 3-µM acetylcholine; CHO cells
T3 construct: host or cells: CHO cells
T3 sequence (P08172 1-466): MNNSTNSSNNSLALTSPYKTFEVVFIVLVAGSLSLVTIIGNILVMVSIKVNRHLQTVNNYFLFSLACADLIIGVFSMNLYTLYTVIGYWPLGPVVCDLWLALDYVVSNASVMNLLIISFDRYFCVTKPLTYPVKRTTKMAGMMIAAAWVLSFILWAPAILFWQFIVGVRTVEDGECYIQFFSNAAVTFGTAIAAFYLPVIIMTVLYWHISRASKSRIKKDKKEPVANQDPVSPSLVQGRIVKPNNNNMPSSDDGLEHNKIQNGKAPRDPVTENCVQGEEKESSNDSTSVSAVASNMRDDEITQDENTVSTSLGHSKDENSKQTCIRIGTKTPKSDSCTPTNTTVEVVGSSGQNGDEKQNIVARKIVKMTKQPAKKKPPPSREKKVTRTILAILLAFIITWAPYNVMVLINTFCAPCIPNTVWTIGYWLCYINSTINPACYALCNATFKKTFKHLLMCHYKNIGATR

[4] = target: T4, recombinant human monoamine oxidase B (hMAO-B) (Homo sapiens, UniProt P27338); experiment: hMAO-B enzyme kinetics (Lineweaver-Burk, Dixon, secondary plots); type: biochemical; conditions: for Ki: hMAO-B, from secondary plots; for Inhibition Type, hMAO-B: Lineweaver-Burk and Dixon plots
T4 sequence (P27338 1-520): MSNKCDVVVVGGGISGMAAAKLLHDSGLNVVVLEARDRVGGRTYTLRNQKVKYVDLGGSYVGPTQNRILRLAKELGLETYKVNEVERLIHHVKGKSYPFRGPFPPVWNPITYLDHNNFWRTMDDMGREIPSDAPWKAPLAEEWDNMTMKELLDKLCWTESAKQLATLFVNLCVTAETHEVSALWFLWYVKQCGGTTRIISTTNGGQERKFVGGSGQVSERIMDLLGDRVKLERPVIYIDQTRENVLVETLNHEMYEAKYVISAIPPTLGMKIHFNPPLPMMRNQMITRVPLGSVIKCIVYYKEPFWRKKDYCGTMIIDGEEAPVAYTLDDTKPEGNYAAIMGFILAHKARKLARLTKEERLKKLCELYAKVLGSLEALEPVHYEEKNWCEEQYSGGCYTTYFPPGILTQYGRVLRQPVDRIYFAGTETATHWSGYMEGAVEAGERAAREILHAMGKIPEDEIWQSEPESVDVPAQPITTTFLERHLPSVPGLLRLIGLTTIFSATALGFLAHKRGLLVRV

[5] = target: T5, human M4 muscarinic acetylcholine receptor (hM4R) (Homo sapiens, UniProt P08173); experiment: M4 (h) functional GPCR assay, agonist effect, cAMP HTRF; type: cell-based; conditions: 100 µM; % of control response to 1-µM acetylcholine; CHO cells
T5 construct: host or cells: CHO cells
T5 sequence (P08173 1-479): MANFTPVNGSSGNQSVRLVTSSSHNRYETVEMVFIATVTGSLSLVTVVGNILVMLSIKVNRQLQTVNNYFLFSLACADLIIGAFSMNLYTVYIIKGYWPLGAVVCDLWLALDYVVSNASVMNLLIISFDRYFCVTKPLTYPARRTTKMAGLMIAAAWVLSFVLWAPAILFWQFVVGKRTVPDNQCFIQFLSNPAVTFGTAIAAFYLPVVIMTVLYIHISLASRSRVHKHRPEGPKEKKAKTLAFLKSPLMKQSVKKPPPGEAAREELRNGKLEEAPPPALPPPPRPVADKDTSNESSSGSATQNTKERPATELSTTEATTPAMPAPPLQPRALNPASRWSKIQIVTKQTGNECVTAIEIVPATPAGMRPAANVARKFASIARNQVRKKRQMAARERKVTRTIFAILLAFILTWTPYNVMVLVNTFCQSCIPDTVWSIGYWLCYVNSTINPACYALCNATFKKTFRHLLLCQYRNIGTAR

[6] = target: T6, human M1 muscarinic acetylcholine receptor (hM1R) (Homo sapiens, UniProt P11229); experiment: M1 (h) functional GPCR assay, agonist effect, intracellular Ca2+; type: cell-based; conditions: 100 µM; % of control response to 100-nM acetylcholine; CHO cells
T6 construct: host or cells: CHO cells
T6 sequence (P11229 whole entry): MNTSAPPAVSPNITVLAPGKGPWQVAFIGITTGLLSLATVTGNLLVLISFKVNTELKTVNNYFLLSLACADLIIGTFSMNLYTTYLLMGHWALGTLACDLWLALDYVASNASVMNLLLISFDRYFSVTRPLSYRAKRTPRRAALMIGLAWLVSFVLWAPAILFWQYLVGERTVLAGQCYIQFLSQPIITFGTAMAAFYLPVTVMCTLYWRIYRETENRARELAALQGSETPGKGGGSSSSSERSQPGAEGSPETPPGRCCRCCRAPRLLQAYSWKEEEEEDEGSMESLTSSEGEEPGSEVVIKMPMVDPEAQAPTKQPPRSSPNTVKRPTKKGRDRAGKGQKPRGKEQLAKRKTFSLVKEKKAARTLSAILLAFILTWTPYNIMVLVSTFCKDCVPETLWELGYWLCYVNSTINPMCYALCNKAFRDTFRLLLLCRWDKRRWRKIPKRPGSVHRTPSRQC

`Cc1coc2c1C(=O)C(=O)c1c-2ccc2c(C)cccc12` [Tanshinone I] was tested, and the “% Stimulation, M5” value [1] was −1.6 ± 0.85%, the Ki ([2]; Kic) was 1.69 ± 0.19 µM and the Ki ([2]; Kiu) was 4.65 ± 0.16 µM. The “Inhibition Type, hMAO-A” value [2] was “Mixed”, the “Inhibition Type, hMAO-A” value ([2]; listed as 1) was “mixed-mode” and the “% Stimulation, M2” value [3] was 12.6 ± 3.61%. For the same molecule, the Ki ([4]; Kic) was 25.6 ± 1.1 µM, the Ki ([4]; Kiu) was 17.4 ± 0.78 µM and the “Inhibition Type, hMAO-B” value [4] was “Mixed”. The “Inhibition Type, hMAO-B” value ([4]; listed as 1) was “mixed mode of inhibition”, the “% Stimulation, M4” value [5] was −23.5 ± 1.48% and the “% Stimulation, M1” value [6] was 2.5 ± 0.21%.
